Experimental data reported in PubChem BioAssay AID266 (DTP/NCI, 2004).
Values joined by “and” are separate entries in the source; they are usually repeats but may differ in a detail not shown here. Equal entries are not always repeated. Records with an inconclusive call do not appear.

Tested on: Nude mice, LX-1 lung xenograft intrarenal, tumor weight T/C
Test: NCI In Vivo Anticancer Drug Screen. Data for tumor model Human Lung LX-1 Xenograft (intrarenal inoculation) in NU/NU BALB/C (nude) mice
Details: endpoint: mean tumor weight change, higher = larger tumour
Description: The antitumor activity of compounds was measured in mice bearing transplantable tumors. Survival or tumor size were measured and the results are expressed as the measurement made in the treated group (T) divided by the measurement made in the vehicle treated control group (C). The tumor model used in this assay is Human Lung LX-1 Xenograft (intrarenal inoculation) in NU/NU BALB/C (nude) mice

[1] = dose: 300.0 mg/kg/injection, schedule: Q04DX003 (sc), vehicle: Klucel (hydroxypropylcellulose) (HPC)
[2] = dose: 18.75 mg/kg/injection, schedule: Q04DX003 (sc), vehicle: saline
[3] = dose: 37.5 mg/kg/injection, schedule: Q04DX003 (sc), vehicle: saline
[4] = dose: 75.0 mg/kg/injection, schedule: Q04DX003 (sc), vehicle: saline
[5] = dose: 150.0 mg/kg/injection, schedule: Q04DX003 (sc), vehicle: saline
[6] = dose: 150.0 mg/kg/injection, schedule: Q04DX003 (sc), vehicle: saline with Tween-80
[7] = dose: 300.0 mg/kg/injection, schedule: Q04DX003 (sc), vehicle: saline
[8] = dose: 600.0 mg/kg/injection, schedule: Q04DX003 (sc), vehicle: saline
[9] = dose: 1200.0 mg/kg/injection, schedule: Q04DX003 (sc), vehicle: saline
[10] = dose: 2400.0 mg/kg/injection, schedule: Q04DX003 (sc), vehicle: saline
[11] = dose: 0.5 mg/kg/injection, schedule: Q01DX010 (sc), vehicle: saline
[12] = dose: 300.0 mg/kg/injection, schedule: Q04DX003 (sc), vehicle: saline with Tween-80
[13] = dose: 600.0 mg/kg/injection, schedule: Q04DX003 (sc), vehicle: saline with Tween-80
[14] = dose: 1200.0 mg/kg/injection, schedule: Q04DX003 (sc), vehicle: saline with Tween-80
[15] = dose: 2400.0 mg/kg/injection, schedule: Q04DX003 (sc), vehicle: saline with Tween-80

SMILES: COC1=C(OC)C(=O)C(SC/C=C(\C)CCCC(C)CCCC(C)CCCC(C)C)=CC1=O (stereo not given)
- T/C (dose: 300.0 mg/kg/injection, schedule: Q04DX003 (ip), vehicle: saline with Tween-80): 82 % of control
- T/C (dose: 600.0 mg/kg/injection, schedule: Q04DX003 (ip), vehicle: saline with Tween-80): 110 % of control
- T/C (dose: 1200.0 mg/kg/injection, schedule: Q04DX003 (ip), vehicle: saline with Tween-80): 72 % of control

SMILES: CN1CCc2c(c3ccccc3c3ccccc23)C1
- T/C (dose: 150.0 mg/kg/injection, schedule: Q04DX003 (sc), vehicle: Klucel (hydroxypropylcellulose) (HPC)): 58 % of control
- T/C [1]: 55 % of control
- T/C (dose: 600.0 mg/kg/injection, schedule: Q04DX003 (sc), vehicle: Klucel (hydroxypropylcellulose) (HPC)): 48 % of control

SMILES: O=C(O)[C@H](Cc1ccccc1)N1C(=O)c2ccccc2C1=O
- T/C (dose: 150.0 mg/kg/injection, schedule: Q04DX003 (ip), vehicle: DMSO): 98 % of control
- T/C (dose: 300.0 mg/kg/injection, schedule: Q04DX003 (ip), vehicle: DMSO): 58 % of control
- T/C (dose: 600.0 mg/kg/injection, schedule: Q04DX003 (ip), vehicle: DMSO): 53 % of control

SMILES: C[C@@H]1C[C@@H]([C@H](O)CC2CC(=O)NC(=O)C2)C(=O)[C@@H](C)C1
- T/C [2]: 94 % of control
- T/C [3]: 114 % of control
- T/C [4]: 118 % of control
- T/C [5]: 110 % of control

SMILES: CC(=O)N(C)O
- T/C [6]: 92 % of control

SMILES: Cn1cc(C2NC(=O)c3ccccc3N2)c2ccccc21 (stereo not given)
- T/C [1]: 83 % of control and 103 % of control
- T/C (dose: 900.0 mg/kg/injection, schedule: Q04DX003 (sc), vehicle: Klucel (hydroxypropylcellulose) (HPC)): 111 % of control and 92 % of control
- T/C (dose: 1200.0 mg/kg/injection, schedule: Q04DX003 (sc), vehicle: Klucel (hydroxypropylcellulose) (HPC)): 90 % of control and 103 % of control

SMILES: NC(=O)CCC(N)C(=O)O (stereo not given)
- T/C (dose: 75.0 mg/kg/injection, schedule: Q04DX003 (ip), vehicle: suspension in saline): 88 % of control
- T/C (dose: 150.0 mg/kg/injection, schedule: Q04DX003 (ip), vehicle: suspension in saline): 77 % of control
- T/C (dose: 300.0 mg/kg/injection, schedule: Q04DX003 (ip), vehicle: suspension in saline): 93 % of control
- T/C (dose: 600.0 mg/kg/injection, schedule: Q04DX003 (ip), vehicle: suspension in saline): 100 % of control
- T/C (dose: 1200.0 mg/kg/injection, schedule: Q04DX003 (ip), vehicle: suspension in saline): 87 % of control

SMILES: CNc1nc(NC)nc(NC)n1
- T/C (dose: 25.0 mg/kg/injection, schedule: Q01DX010 (sc), vehicle: Klucel (hydroxypropylcellulose) (HPC)): 85 % of control
- T/C (dose: 100.0 mg/kg/injection, schedule: Q01DX010 (sc), vehicle: Klucel (hydroxypropylcellulose) (HPC)): 107 % of control

SMILES: COC(=O)CC(N)C(=O)O (stereo not given)
- T/C [7]: 84 % of control
- T/C [8]: 80 % of control
- T/C [9]: 55 % of control
- T/C [10]: 54 % of control

SMILES: CN(N=O)C(N)=O
- T/C (dose: 12.5 mg/kg/injection, schedule: Q01DX010 (sc), vehicle: saline with Tween-80): -68 % of control
- T/C (dose: 25.0 mg/kg/injection, schedule: Q01DX010 (sc), vehicle: saline with Tween-80): -54 % of control
- T/C (dose: 50.0 mg/kg/injection, schedule: Q01DX010 (sc), vehicle: saline with Tween-80): -69 % of control

SMILES: COC1N(C2CC(O)C(CO)O2)C(=O)NC(=O)C1(F)Br (stereo not given)
- T/C (dose: 12.5 mg/kg/injection, schedule: Q01DX010 (sc), vehicle: saline): 54 % of control
- T/C (dose: 50.0 mg/kg/injection, schedule: Q01DX010 (sc), vehicle: saline): 12 % of control and 24 % of control
- T/C (dose: 100.0 mg/kg/injection, schedule: Q01DX010 (sc), vehicle: saline): 12 % of control and 13 % of control

SMILES: NC(N)=NOCC[C@@H](N)C(=O)O
- T/C [7]: 91 % of control
- T/C [8]: 91 % of control
- T/C [9]: 82 % of control
- T/C [10]: 59 % of control

SMILES: Cc1ccc(S(=O)(=O)NC(=S)S)cc1
- T/C (dose: 100.0 mg/kg/injection, schedule: Q01DX010 (sc), vehicle: saline with Tween-80): 203 % of control
- T/C (dose: 200.0 mg/kg/injection, schedule: Q01DX010 (sc), vehicle: saline with Tween-80): 111 % of control
- T/C (dose: 400.0 mg/kg/injection, schedule: Q01DX010 (sc), vehicle: saline with Tween-80): 196 % of control

SMILES: COc1cccc2c1C(=O)c1c(O)c3c(c(O)c1C2=O)CC(O)(C(=O)CO)CC3OC1CC(N)C(O)C(C)O1 (stereo not given)
- T/C (dose: 50.0 mg/kg/injection, schedule: Q04DX003 (sc), vehicle: water): 86 % of control
- T/C (dose: 100.0 mg/kg/injection, schedule: Q04DX003 (sc), vehicle: water): 103 % of control
- T/C (dose: 200.0 mg/kg/injection, schedule: Q04DX003 (sc), vehicle: water): 90 % of control
- T/C (dose: 400.0 mg/kg/injection, schedule: Q04DX003 (sc), vehicle: water): 103 % of control

SMILES: C1CN1c1nc(N2CC2)nc(N2CC2)n1
- T/C (dose: 0.25 mg/kg/injection, schedule: Q01DX010 (sc), vehicle: saline): 34 % of control
- T/C [11]: 45 % of control

SMILES: c1ccc2c(c1)[As]=c1ccccc1=[As]2 (stereo not given)
- T/C [2]: 58 % of control
- T/C [3]: 46 % of control
- T/C [4]: 50 % of control
- T/C [5]: 40 % of control

SMILES: O=S(=O)(N=N/C=C1\C=CC=CN1O)c1cccs1
- T/C (dose: 37.5 mg/kg/injection, schedule: Q04DX003 (sc), vehicle: saline with Tween-80): 121 % of control
- T/C (dose: 75.0 mg/kg/injection, schedule: Q04DX003 (sc), vehicle: saline with Tween-80): 82 % of control
- T/C [6]: 103 % of control

SMILES: Nc1ncn(C2CC(O)C(CO)O2)c(=O)n1 (stereo not given)
- T/C (dose: 0.75 mg/kg/injection, schedule: Q01DX010 (sc), vehicle: saline): 85 % of control

SMILES: Nc1ncnc2c(C3OC(CO)C(O)C3O)[nH]nc12 (stereo not given)
- T/C (dose: 75.0 mg/kg/injection, schedule: Q04DX003 (sc), vehicle: suspension in saline): 83 % of control
- T/C (dose: 150.0 mg/kg/injection, schedule: Q04DX003 (sc), vehicle: suspension in saline): 37 % of control

SMILES: O=C(c1cccnc1)c1cc(-c2ccccn2)c(=O)n2ccccc12
- T/C [12]: 95 % of control
- T/C [13]: 74 % of control
- T/C [14]: 92 % of control
- T/C [15]: 74 % of control

SMILES: N[C@H](C(=O)O)[C@@H]1CC(Cl)=NO1
- T/C [11]: 44 % of control
- T/C (dose: 2.0 mg/kg/injection, schedule: Q01DX010 (sc), vehicle: saline): 223 % of control and 82 % of control
- T/C (dose: 2.0 mg/kg/injection, schedule: Q02DX005 (sc), vehicle: saline): 150 % of control
- T/C (dose: 4.0 mg/kg/injection, schedule: Q02DX005 (sc), vehicle: saline): 227 % of control
- T/C (dose: 8.0 mg/kg/injection, schedule: Q01DX010 (sc), vehicle: saline): 361 % of control
- T/C (dose: 8.0 mg/kg/injection, schedule: Q02DX005 (sc), vehicle: saline): 159 % of control
- T/C (dose: 16.0 mg/kg/injection, schedule: Q01DX010 (sc), vehicle: saline): 63 % of control
- T/C (dose: 16.0 mg/kg/injection, schedule: Q02DX005 (sc), vehicle: saline): 253 % of control
- T/C (dose: 32.0 mg/kg/injection, schedule: Q01DX010 (sc), vehicle: saline): 35 % of control
- T/C (dose: 32.0 mg/kg/injection, schedule: Q02DX005 (sc), vehicle: saline): 68 % of control

SMILES: O=S(CCCl)CCCl
- T/C (dose: 25.0 mg/kg/injection, schedule: Q04DX003 (sc), vehicle: Klucel (hydroxypropylcellulose) (HPC)): 81 % of control
- T/C (dose: 50.0 mg/kg/injection, schedule: Q04DX003 (sc), vehicle: Klucel (hydroxypropylcellulose) (HPC)): 76 % of control

SMILES: COc1cc(C(C)(C)C)cc(OC)c1C(O)(c1c(OC)cc(C(C)(C)C)cc1OC)c1c(OC)cc(C(C)(C)C)cc1OC
- T/C [12]: 60 % of control
- T/C [13]: 54 % of control
- T/C [14]: 54 % of control
- T/C [15]: 73 % of control

SMILES: CO[C@H](/C(C)=C/C=C/C(C)=C/c1coc(C)n1)[C@H](C)[C@H]1C[C@@H](O)[C@@]2(C)O[C@H]2/C=C/[C@@H](C)[C@@H]2C[C@@H](CC(=O)O2)C[C@H]2O[C@@H]2C(=O)O1
- T/C (dose: 0.13 mg/kg/injection, schedule: Q04DX003 (sc), vehicle: Klucel (hydroxypropylcellulose) (HPC)): 105 % of control
- T/C (dose: 0.25 mg/kg/injection, schedule: Q04DX003 (sc), vehicle: Klucel (hydroxypropylcellulose) (HPC)): 95 % of control

SMILES: CC1CN1C(=O)NCCCCCCNC(=O)N1CC1C (stereo not given)
- T/C (dose: 20.0 mg/kg/injection, schedule: Q04DX003 (sc), vehicle: Klucel (hydroxypropylcellulose) (HPC)): 68 % of control
